From paper PMC10254170, “Diastereoselective Synthesis of the Borylated D-Galactose Monosaccharide 3-Boronic-3-Deoxy-D-Galactose and Biological Evaluation in Glycosidase Inhibition and in Cancer for Boron Neutron Capture Therapy (BNCT)” (Molecules, 2023)
Like-named read-outs stand apart in the source and are kept apart here.

Tests used:
[1] = system: MCF10A (non-tumor-derived normal breast cell line); experiment: Cancer screening (MTT growth inhibition), MCF10A; type: cell-based; settings: 72 h; for inhibition at 25 µM / Percentage (%) cell growth inhibition: 25 µM of drug, n = 3, mean ± SEM; for inhibition at 25 µM: read-out: Percentage (%) cell growth inhibition
Method: (§1) All test agents were prepared as stock solutions (20 mM) in dimethyl sulfoxide (DMSO) and stored at −20 °C. Cell lines used in the study included: HT29 (colorectal carcinoma), U87 and SJ-G2 (glioblastoma), MCF-7 (breast carcinoma), A2780 (ovarian carcinoma), H460 (lung carcinoma), A431 (skin carcinoma), Du145 (prostate carcinoma), BE2-C (neuroblastoma), MiaPaCa-2 (pancreatic carcinoma), SMA560 (spontaneous murine astrocytoma), and ADDP (Cis Res Ovarian), together with one non-tumor-derived normal breast cell line (MCF10A). All cell lines were incubated in a humidified atmosphere with 5 % CO2 at 37 °C. The cancer cell lines were maintained in Dulbecco’s modified Eagle’s medium (DMEM; Sigma, Australia) supplemented with fetal bovine serum (10%), sodium pyruvate (10 mM), penicillin (100 IUmL^−1), streptomycin (100 µg mL^−1), and L-glutamine (2 mM).
The non-cancer MCF10A cell line was maintained in DMEM:F12 (1:1) cell culture media, 5% heat inactivated horse serum, and supplemented with penicillin (50 IUmL^−1), streptomycin (50 µg mL^−1), HEPES (20 mM), L-glutamine (2 mM), epidermal growth factor (20 ng mL^−1), hydrocortisone (500 ng mL^−1), cholera toxin (100 ng mL^−1), and insulin ([…]).
(§2) Growth inhibition was determined by plating cells in duplicate in medium (100 µL) at a density of 2500–4000 cells per well in 96-well plates. On day 0 (24 h after plating), when the cells are in logarithmic growth, medium (100 µL) with or without the test agent was added to each well. After 72 h of drug exposure, growth inhibitory effects were evaluated using the (3-(4,5-dimethyltiazol-2-yl)-2,5-diphenyltetrazolium bromide) (MTT) assay and absorbance read at 540 nm. The percentage growth inhibition was calculated at a fixed concentration of 25 µM, based on the difference between the optical density values on day 0 and those at the end of drug exposure. Each data point is the mean ± the standard error of the mean (SEM) calculated from three replicates, which were performed on separate occasions and in separate cell line passages.

[2] = target: T1, coffee beans α-galactosidase (Coffea arabica, UniProt Q42656); experiment: Glycosidase inhibition, coffee beans α-galactosidase; type: biochemical
T1 construct: purchased Sigma-Aldrich Co
T1 sequence (Q42656 16-378): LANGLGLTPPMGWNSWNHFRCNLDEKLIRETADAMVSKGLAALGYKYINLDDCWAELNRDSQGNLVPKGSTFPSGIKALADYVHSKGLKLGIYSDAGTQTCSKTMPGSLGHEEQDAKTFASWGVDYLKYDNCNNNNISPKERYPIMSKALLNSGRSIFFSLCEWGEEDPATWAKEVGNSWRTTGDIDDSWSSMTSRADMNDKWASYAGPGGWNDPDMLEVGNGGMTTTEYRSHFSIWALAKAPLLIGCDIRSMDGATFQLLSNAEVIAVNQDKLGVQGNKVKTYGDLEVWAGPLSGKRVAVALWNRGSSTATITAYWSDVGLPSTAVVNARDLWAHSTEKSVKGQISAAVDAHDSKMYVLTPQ
From the text: (§3) Glycosidase modulation studies need to explore selectivity as well as potency. Our drugs and controls are therefore screened against a panel of glycosidases in methanol (Table 1) to identify the glycosidase-related disease area(s), selectivity profile, and potency of biological action for each drug. The presence of organic boron covalently bonded to the drug structure also grants a reduced toxicity profile. Following the glycosidase inhibition range recommendations, an IC50 value >250 μm denotes weak inhibition, 100–249 μm denotes moderate inhibition, 10–99 μm good inhibition, 0.1–9 μm potent inhibition, and <0.1 μm very potent inhibition. […] Our boronated D-galactose 7 represents a novel lead in glycosidase inhibition.
(§4) The glycosidases screened are the following: rice α-glucosidase, yeast α-glucosidase, Bacillus α-glucosidase, rat intestinal maltase α-glucosidase, almond β-glucosidase, bovine liver β-glucosidase, coffee beans α-galactosidase, bovine liver β-galactosidase, Jack bean α-mannosidase, snail β-mannosidase, Penicillium decumbens α-L-rhamnosidase, bovine kidney α-L-fucosidase, Eschierichia coli β-glucuronidase, bovine liver β-glucuronidase, porcine kidney trehalase, Aspergillus niger amyloglucosidase, and bovine kidney N-acetyl-β-glucosaminidase. The disease areas for each glycosidase are summarized in [1].
(§5) The enzymes α-glucosidase (from yeast), β-glucosidases (from almond and bovine liver), α-galactosidase (from coffee beans), β-galactosidase (from bovine liver), α-mannosidase (from Jack bean), β-mannosidase (from snail), α-L-rhamnosidase (from Penicillium decumbens), α-L-fucosidase (from bovine kidney), trehalase (from porcine kidney), β-glucuronidases (from E. coli and bovine liver), amyloglucosidase (from A. niger), para-nitrophenyl glycosides, and various disaccharides were purchased from Sigma-Aldrich Co.
(§6) Brush border membranes were prepared from the rat small intestine according to the method of Kessler et al. and were assayed at pH 6.8 for rat intestinal maltase using maltose. For rat intestinal maltase, porcine kidney trehalase, and A. niger amyloglucosidase activities, the reaction mixture contained 25 mM maltose and the appropriate amount of enzyme, and the incubations were performed for 10–30 min at 37 °C. The reaction was stopped by heating at 100 °C for 3 min. After centrifugation (600 g; 10 min), the resulting reaction mixture was added to the Glucose CII-test Wako (Wako Pure Chemical Ind., Osaka, Japan). The absorbance at 505 nm was measured to determine the amount of the released D-glucose. Other glycosidase activities were determined using an appropriate para-nitrophenyl glycoside as substrate at the optimum pH of each enzyme. The reaction mixture contained 2 mM of the substrate and the appropriate amount of enzyme. The reaction was stopped by the addition of 400 mM Na2CO3. The released para-nitrophenol was measured spectrometrically at 400 nm. All reactions run in methanol.

[3] = system: HT29 (colorectal carcinoma); experiment: Cancer screening (MTT growth inhibition), HT29; type: cell-based; settings: 72 h; for inhibition at 25 µM: HT-29, 25 µM of drug, read-out: Percentage (%) cell growth inhibition; for inhibition at 25 µM / Percentage (%) cell growth inhibition: n = 3, mean ± SEM; for Percentage (%) cell growth inhibition: 25 µM of drug
Method: as §1, §2

[4] = system: rat intestinal maltase α-glucosidase; experiment: Glycosidase inhibition, rat intestinal maltase; type: biochemical; settings: for inhibition %: in methanol
From the text: as §3, §4, §6

[5] = system: bovine liver β-galactosidase; experiment: Glycosidase inhibition, bovine liver β-galactosidase; type: biochemical; settings: for inhibition %: in methanol
From the text: as §3, §4, §5, §6

E. coli β-glucuronidase = target: T2, E. coli β-glucuronidase (Escherichia coli, UniProt P05804); experiment: Glycosidase inhibition, E. coli β-glucuronidase; type: biochemical
T2 construct: purchased Sigma-Aldrich Co
T2 sequence (P05804 whole entry): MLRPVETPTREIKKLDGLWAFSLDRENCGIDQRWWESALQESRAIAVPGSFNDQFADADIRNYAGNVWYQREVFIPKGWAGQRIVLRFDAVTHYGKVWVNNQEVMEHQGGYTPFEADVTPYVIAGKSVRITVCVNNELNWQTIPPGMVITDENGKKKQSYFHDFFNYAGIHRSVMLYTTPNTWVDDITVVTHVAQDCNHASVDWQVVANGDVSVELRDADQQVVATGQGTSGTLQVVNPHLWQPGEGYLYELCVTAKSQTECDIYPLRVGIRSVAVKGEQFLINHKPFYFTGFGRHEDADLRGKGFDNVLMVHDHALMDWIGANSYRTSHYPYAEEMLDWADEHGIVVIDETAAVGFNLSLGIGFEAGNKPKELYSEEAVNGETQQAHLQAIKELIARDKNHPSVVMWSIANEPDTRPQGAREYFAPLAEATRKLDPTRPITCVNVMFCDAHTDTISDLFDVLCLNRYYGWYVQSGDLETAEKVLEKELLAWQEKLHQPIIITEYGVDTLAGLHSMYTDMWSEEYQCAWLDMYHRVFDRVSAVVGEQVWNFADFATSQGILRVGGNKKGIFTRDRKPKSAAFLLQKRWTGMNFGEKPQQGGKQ
From the text: as §3, §4, §5, §6

H460 (lung carcinoma) = experiment: Cancer screening (MTT growth inhibition), H460; type: cell-based; settings: 72 h; for inhibition at 25 µM: NCI-H460, 25 µM of drug, read-out: Percentage (%) cell growth inhibition; for inhibition at 25 µM / Percentage (%) cell growth inhibition: n = 3, mean ± SEM; for Percentage (%) cell growth inhibition: 25 µM of drug
Method: as §1, §2

SJ-G2 (glioblastoma) = experiment: Cancer screening (MTT growth inhibition), SJ-G2; type: cell-based; settings: 72 h; for inhibition at 25 µM: SJ-G2, 25 µM of drug, read-out: Percentage (%) cell growth inhibition; for inhibition at 25 µM / Percentage (%) cell growth inhibition: n = 3, mean ± SEM; for Percentage (%) cell growth inhibition: 25 µM of drug
Method: as §1, §2

U87 (glioblastoma) = experiment: Cancer screening (MTT growth inhibition), U87; type: cell-based; settings: 72 h; for inhibition at 25 µM / Percentage (%) cell growth inhibition: 25 µM of drug, n = 3, mean ± SEM; for inhibition at 25 µM: read-out: Percentage (%) cell growth inhibition
Method: as §1, §2

MCF-7 (breast carcinoma) = experiment: Cancer screening (MTT growth inhibition), MCF-7; type: cell-based; settings: 72 h; for inhibition at 25 µM: MCF7, 25 µM of drug, read-out: Percentage (%) cell growth inhibition; for inhibition at 25 µM / Percentage (%) cell growth inhibition: n = 3, mean ± SEM; for Percentage (%) cell growth inhibition: 25 µM of drug
Method: as §1, §2

[6] = system: all cell lines (cancer cell lines and normal cell line); experiment: Cancer screening, all cell lines; type: cell-based; settings: all cancer cell lines and the normal cell line
Method: as §1, with “The cancer cell lines were maintained in Dulbecco’s modified Eagle’s medium (DMEM; Sigma, Australia) supplemented with fetal bovine serum (10%), sodium pyruvate (10 mM), penicillin (100 IUmL^−1), streptomycin (100 µg mL^−1), and L-glutamine (2 mM).” left out
as §2, with “On day 0 (24 h after plating), when the cells are in logarithmic growth, medium (100 µL) with or without the test agent was added to each well.” left out

Solubility in water = type: physicochemical
[7] = system: ADDP (Cis Res Ovarian) cell line; experiment: Cancer screening (MTT growth inhibition), ADDP; type: cell-based
Method: as §1, with “The cancer cell lines were maintained in Dulbecco’s modified Eagle’s medium (DMEM; Sigma, Australia) supplemented with fetal bovine serum (10%), sodium pyruvate (10 mM), penicillin (100 IUmL^−1), streptomycin (100 µg mL^−1), and L-glutamine (2 mM).” left out
as §2, with “On day 0 (24 h after plating), when the cells are in logarithmic growth, medium (100 µL) with or without the test agent was added to each well.” left out

[8] = at 100 μM, in methanol, read-out: inhibition %
[9] = at 100 μM, read-out: NI: No inhibition
[10] = at 1000 μM, in methanol, read-out: inhibition %
[11] = at 1000 μM, read-out: NI: No inhibition

Compound	inhibition at 25 µM ([1]; Homo sapiens, MCF-10A) [%]	inhibition at 100 µM [2, 8] [%]	inhibition at 100 µM [2, 9] [%]	inhibition at 25 µM ([3]; Homo sapiens) [%]	NI: No inhibition ([4]; at 100 μM)	inhibition % ([4]; at 100 μM) [%]	NI: No inhibition ([5]; at 100 μM)	inhibition % ([5]; at 100 μM) [%]	inhibition at 100 µM (E. coli β-glucuronidase; [8]) [%]	inhibition at 100 µM (E. coli β-glucuronidase; [9]) [%]	inhibition at 25 µM (H460 (lung carcinoma); Homo sapiens) [%]	inhibition at 25 µM (SJ-G2 (glioblastoma)) [%]	inhibition at 25 µM (U87 (glioblastoma)) [%]	inhibition at 25 µM (MCF-7 (breast carcinoma); Homo sapiens) [%]	GI50 [6] [µM]	solubility in water (Solubility in water)	NI: No inhibition ([4]; at 1000 μM)	inhibition % ([4]; at 1000 μM) [%]	NI: No inhibition ([5]; at 1000 μM)	inhibition % ([5]; at 1000 μM) [%]	also measured
N[C@@H](Cc1ccc(B(O)O)cc1)C(=O)O [BPA, 4-borono-L-phenylalanine]	4 ± 1	4.3	< 50	14	NI (No inhibition (less than 50% inhibition at 100 μM))	0	NI (No inhibition (less than 50% inhibition at 100 μM))	10.9	0.5	< 50	7 ± 8	5 ± 8	< 0	< 0	–	–	–	–	–	–	–
CC1(C)OCC(C2OC3OC(C)(C)OC3C2[B-]23OCC[NH+]2CCO3)O1 [Compound 6, 3-Deoxy-3-Boronodiethanolamine-1,2:5,6-Di-O-isopropylidene-α-D-galactofuranose]	5 ± 1	0.5	< 50	10 ± 5	NI (No inhibition (less than 50% inhibition at 100 μM))	3.1	NI (No inhibition (less than 50% inhibition at 100 μM))	16.3	3.5	< 50	9 ± 2	< 0	8 ± 4	14 ± 5	> 50	soluble in water	–	–	–	–	–
OCC1OC(O)C(O)C(B(O)O)C1O [Compound 7, 3-Boronic-3-Deoxy-D-galactose]	7 ± 3	–	–	-2 ± 2	–	–	–	–	–	–	4 ± 1	7 ± 4	-6 ± 3	2 ± 2	> 50	soluble in water	NI (No inhibition (less than 50% inhibition at 1000 μM))	18.3	NI (No inhibition (less than 50% inhibition at 1000 μM))	40.7	GI50 ([1]; Homo sapiens, MCF-10A, dose response, read-out: GI50 = Concentration that inhibits cell growth by 50%): > 50 µM; inhibition at 1000 µM [2, 10]: 0%; inhibition at 1000 µM [2, 11]: < 50%; GI50 ([3]; Homo sapiens, HT-29, dose response, read-out: GI50 = Concentration that inhibits cell growth by 50%): > 50 µM; inhibition at 1000 µM (E. coli β-glucuronidase; [10]): 3.7%; inhibition at 1000 µM (E. coli β-glucuronidase; [11]): < 50%; GI50 (H460 (lung carcinoma); Homo sapiens, NCI-H460, dose response, read-out: GI50 = Concentration that inhibits cell growth by 50%): > 50 µM; inhibition at 25 µM ([7]; 25 µM of drug, 72 h, MTT): 2%; GI50 ([7]; dose response, unit from table title): > 50 µM; GI50 (SJ-G2 (glioblastoma); SJ-G2, dose response, read-out: GI50 = Concentration that inhibits cell growth by 50%): > 50 µM; GI50 (U87 (glioblastoma); dose response, read-out: GI50 = Concentration that inhibits cell growth by 50%): > 50 µM; GI50 (MCF-7 (breast carcinoma); Homo sapiens, MCF7, dose response, read-out: GI50 = Concentration that inhibits cell growth by 50%): > 50 µM
N[C@@H](Cc1ccc(B(O)O)cc1)C(=O)O [^10B-BPA]	–	–	–	–	NI (No inhibition (less than 50% inhibition at 100 μM))	0	NI (No inhibition (less than 50% inhibition at 100 μM))	0	–	–	–	–	–	–	–	–	–	–	–	–	Percentage (%) cell growth inhibition [1]: <0%; inhibition % ([2]; at 100 μM, in methanol): 1.2%; Percentage (%) cell growth inhibition [3]: 15 ± 4%; inhibition % (E. coli β-glucuronidase; at 100 μM, in methanol): 2.4%; Percentage (%) cell growth inhibition (H460 (lung carcinoma)): 8 ± 5%; Percentage (%) cell growth inhibition (SJ-G2 (glioblastoma)): 5 ± 10%; Percentage (%) cell growth inhibition (U87 (glioblastoma)): <0%; Percentage (%) cell growth inhibition (MCF-7 (breast carcinoma)): 1 ± 3%
Borocaptate sodium [BSH]	–	–	–	–	–	–	–	–	–	–	–	–	–	–	–	–	NI (No inhibition (less than 50% inhibition at 1000 μM))	0	NI (No inhibition (less than 50% inhibition at 1000 μM))	0	Percentage (%) cell growth inhibition [1]: 8 ± 3%; inhibition % ([2]; at 1000 μM, in methanol): 12.3%; Percentage (%) cell growth inhibition [3]: 3 ± 2%; inhibition % (E. coli β-glucuronidase; at 1000 μM, in methanol): 6%; Percentage (%) cell growth inhibition (H460 (lung carcinoma)): 8 ± 2%; Percentage (%) cell growth inhibition (SJ-G2 (glioblastoma)): 3 ± 8%; Percentage (%) cell growth inhibition (U87 (glioblastoma)): <0%; Percentage (%) cell growth inhibition (MCF-7 (breast carcinoma)): 15 ± 3%
